In US8097431B2 (priority 2004, dated 2012):

Assays:
[1] = target: T1, progesterone tripartite system (Homo sapiens, UniProt P06401); test: progesterone bioactivity in serum of women on birth control (progesterone tripartite system); assay type: in vivo; details: women on fourth generation progestin
T1 construct: expressed in transfected cells; host or cells: Saccharomyces cerevisiae W303 diploid yARUP16 transformed with pARUP32 (yARUP49)
T1 sequence (P06401 with tags, fused parts or gaps): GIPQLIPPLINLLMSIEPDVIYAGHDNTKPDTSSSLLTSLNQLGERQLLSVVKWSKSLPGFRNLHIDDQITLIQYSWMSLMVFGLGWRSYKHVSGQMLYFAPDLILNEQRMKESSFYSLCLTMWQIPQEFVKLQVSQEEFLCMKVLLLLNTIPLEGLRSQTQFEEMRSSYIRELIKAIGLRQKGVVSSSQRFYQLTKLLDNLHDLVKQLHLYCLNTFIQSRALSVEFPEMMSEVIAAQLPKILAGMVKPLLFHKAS
Procedure: Serum samples were pre-treated by diluting with an equal volume of 0.9 mg/mL K2EDTA, (150 μl of serum was added to 150 μl of 0.9 mg/mL K2 EDTA), vortexed briefly and heated for 5 min at 72 C. Pre-treated serum was added to yeast expressing the androgen or progesterone tripartite, prepared as follows.
Yeast were inoculated from a frozen stock into synthetic media lacking leucine, uracil, and histidine supplemented with 2% dextrose. […] Twenty-five microliters of mid-log yeast were added to each well of a 384-well plate using a, BioMek 2000 (Beckman-Coulter). Serum samples were diluted with an equal volume of 0.9 mg/mL K2EDTA, (150 μL of serum was added to 150 μL of 0.9 mg/mL K2 EDTA), vortexed briefly and heated for 5 min at 72° C. Ten microliters of pre-treated sample was added to the plate. Ten microliters of serially diluted compound in H2O was incubated with 25 μL of yeast (Thermolabsystems). The plate was covered with Aeroseal sealing film (Research Products International, Palatine Ill.), and placed on a plate shaker for 5 min and the plate was incubated for 17-18 hr at 28° C. in a humidified incubator. After overnight incubation, the plate was shaken for 5 min. […] After about 2-hr incubation at room temperature, the β-galactosidase in the reaction mixture was determined using Luminskan luminometer (Thermolabsystems). […]

[2] = target: T2, LexA-DBD:PR-LBD:VP16 (Homo sapiens, UniProt P06401); test: yeast progesterone tripartite bioassay; assay type: cell-based; details: progesterone receptor tripartite
T2 construct: expressed in transfected cells; host or cells: Saccharomyces cerevisiae W303 diploid yARUP16 transformed with pARUP32 (yARUP49)
T2 sequence (P06401 with tags, fused parts or gaps): T1 sequence (P06401 with tags, fused parts or gaps)
Procedure: Yeast were inoculated from a plate into synthetic media lacking leucine, uracil and histidine supplemented with 2% dextrose. After 18 hr incubation at 30° C., cells were washed with synthetic media lacking leucine, uracil and histidine supplemented with glycerol and resuspended in glycerol media to an absorbance at 600 nm of 0.03. Cells were grown for 4 hr then 50 μL of cells were added to each well of a 96-well plate. 50 μl of steroid in phosphate buffered saline 0.5% BSA. Cells were grown at 30° C. in a shaking water bath for 18 hr. To detect β-galactosidase activity, 25 μl of cells and 25 μl of Beta-Glo (Promega, Madison Wis.) were transferred to a luminescent 96-well plate (Fisher, Pittsburgh, Pa.). After 30 min incubation at room temperature, the reaction mixture was read using Lumimark (Bio-Rad, Hercules, Calif.).

| Structure (SMILES) | serum progesterone levels of women on birth control [1] | levels detectable by this method [2] |
| --- | --- | --- |
| C[C@]12CCC(=O)C=C1[C@@H]1C[C@@H]1[C@H]1[C@@H]3[C@@H]4C[C@@H]4[C@@]4(CCC(=O)O4)[C@@]3(C)CC[C@@H]12 [drospireone] | lower |  |
| CC(=O)[C@H]1CC[C@H]2[C@@H]3CCC4=CC(=O)CC[C@]4(C)[C@H]3CC[C@]12C [Progesterone, progesterone] |  | 1000-100,000 pg/ml |
